Test [1] concerns the target human BCL6 BTB domain (Trx-6×His-BCL6) / BCOR-AF633 peptide (Homo sapiens (Human), UniProt P41182). Put plainly: HTRF assay. The following applies: 1 nM Trx-6×His-BCL6, 300 nM BCOR-AF633 peptide, 2 hours incubation. Format: binding.
Experimental: The % inhibition at each concentration was calculated by normalising FRET ratio to the appropriate high (DMSO with all reagents) and low (DMSO without BCL6) controls.
Test [2] addresses BCL6-NCOR2(SMRT) corepressor protein-protein interaction (Homo sapiens (Human), UniProt P41182). As to the kind of experiment: NanoBRET cell assay. Conditions: for IC50: read-out: NanoBRET cell avg pIC50 (converted). It is filed as cell-based. From the text:
At 20 hr post-transfection, cells were collected, washed with PBS, and exchanged into media containing phenol red-free OptiMEM+4% FBS (Life Technology).

The results in this text go back to US20230287003A1, “BCL6 INHIBITORS” (Cancer Research Technology Limited, priority 2018, published 2023).

In the case of `Cn1c(=O)c2c(c3cc(Nc4nc(N5C6CCC5COC6)ncc4Cl)ccc31)N[C@@H](C1CC1)CCO2` [Example 5l, (R)-10-((2-(3-oxa-8-azabicyclo[3.2.1]octan-8-yl)-5-chloropyrimidin-4-yl)amino)-2-cyclopropyl-7-methyl-1,2,3,4-tetrahydro-[1,4]oxazepino[2,3-c]quinolin-6(7H)-one], the “HTRF avg pIC50 (1 nM)” value in test [1] came to 7.49. Moreover, the IC50 in test [2] is 120 nM.
In the same order, the values of `COC[C@@H]1CCCN1C(=O)c1cc(Nc2ccc3c(c2)c2c(c(=O)n3C)OCC[C@H](C)N2)c(Cl)cn1` [Example 4b, (S)-10-((5-chloro-2-((S)-2-(methoxymethyl)pyrrolidine-1-carbonyl)pyridin-4-yl)amino)-2,7-dimethyl-1,2,3,4-tetrahydro-[1,4]oxazepino[2,3-c]quinolin-6(7H)-one] are 6.70 and 3310 nM.
As for `C[C@H]1COC(=O)c2c(c3cc(Nc4cc(OC5CCOCC5)ncc4Cl)ccc3n(C)c2=O)N1` [Example 7a], the “HTRF avg pIC50 (1 nM)” value in test [1] came out at 6.72. Further, in test [2], the IC50 was 19100 nM.
Consider `CN1CCN(c2ncc(Cl)c(Nc3ccc4c(c3)c3c(c(=O)n4C)OCC[C@H](C4CC4)N3)n2)CC1=O` [Example 12b, (R)-10-((5-chloro-2-(4-methyl-3-oxopiperazin-1-yl)pyrimidin-4-yl)amino)-2-cyclopropyl-7-methyl-1,2,3,4-tetrahydro-[1,4]oxazepino[2,3-c]quinolin-6(7H)-one], for which the “HTRF avg pIC50 (1 nM)” value in test [1] worked out at 7.80. The IC50 in test [2] was 60.3 nM.
In the same order, the values of `O=c1c2c(c3cc(Nc4nc(N5C6CCC5COC6)ncc4Cl)ccc3n1CC1CC1)N[C@@H](C1CC1)CCO2` [Example 5r, (R)-10-((2-(3-oxa-8-azabicyclo[3.2.1]octan-8-yl)-5-chloropyrimidin-4-yl)amino)-2-cyclopropyl-7-(cyclopropylmethyl)-1,2,3,4-tetrahydro-[1,4]oxazepino[2,3-c]quinolin-6(7H)-one] are 7.41 and 43.7 nM.
In the case of `C[C@H]1CCOc2c(c3cc(Nc4cc(C(=O)N5CCC5)nc(Cl)c4C#N)ccc3n(C)c2=O)N1` [Example 3a, (S)-6-(azetidine-1-carbonyl)-2-chloro-4-((2,7-dimethyl-6-oxo-1,2,3,4,6,7-hexahydro-[1,4]oxazepino[2,3-c]quinolin-10-yl)amino)nicotinonitrile], the “HTRF avg pIC50 (1 nM)” value in test [1] was 6.88. Further, the IC50 in test [2] was 4790 nM.
Taken in the same sequence, the figures for `Cn1c(=O)c2c(c3cc(Nc4nc(-n5ccc(C(F)(F)F)n5)ncc4Cl)ccc31)N[C@@H](C1CC1)CCO2` [Example 5a, (R)-10-((5-chloro-2-(3-(trifluoromethyl)-1H-pyrazol-1-yl)pyrimidin-4-yl)amino)-2-cyclopropyl-7-methyl-1,2,3,4-tetrahydro-[1,4]oxazepino[2,3-c]quinolin-6(7H)-one] were 7.03 and 617 nM.
In the same order, the values of `CN(C)C(=O)C1CCN(c2ncc(Cl)c(Nc3ccc4c(c3)c3c(c(=O)n4C)C(=O)OC[C@H](C4CC4)N3)n2)CC1` [Example 8m, (S)-1-(5-chloro-4-((2-cyclopropyl-7-methyl-5,6-dioxo-1,2,3,5,6,7-hexahydro-[1,4]oxazepino[6,5-c]quinolin-10-yl)amino)pyrimidin-2-yl)-N,N-dimethylpiperidine-4-carboxamide] are 6.28 and 31600 nM.
As for `Cn1c(=O)c2c(c3cc(Nc4nc(N5CC6CCC(C5)O6)ncc4Cl)ccc31)N[C@@H](C1CC1)CCO2` [Example 12g, (R)-10-((2-(8-oxa-3-azabicyclo[3.2.1]octan-3-yl)-5-chloropyrimidin-4-yl)amino)-2-cyclopropyl-7-methyl-1,2,3,4-tetrahydro-[1,4]oxazepino[2,3-c]quinolin-6(7H)-one], in test [1], the “HTRF avg pIC50 (1 nM)” value was 7.54. Besides, the IC50 in test [2] was 776 nM.
In the same order, the values of `C[C@@H]1CN(c2ncc(Cl)c(Nc3ccc4c(c3)c3c(c(=O)n4C)OCC[C@H](C)N3)n2)C[C@H](C)O1` [Example 5g, (S)-10-((5-chloro-2-((2S,6R)-2,6-dimethylmorpholino)pyrimidin-4-yl)amino)-2,7-dimethyl-1,2,3,4-tetrahydro-[1,4]oxazepino[2,3-c]quinolin-6(7H)-one] are 6.88 and 2040 nM.
Take `Cn1c(=O)c2c(c3cc(Nc4nc(N5C6COCC5CC(O)C6)ncc4Cl)ccc31)N[C@@H](C1CC1)C(F)(F)CO2` (stereo partly drawn) [Example 11c, (S)-10-((5-chloro-2-((1R,5S,7R)-7-hydroxy-3-oxa-9-azabicyclo[3.3.1]-nonan-9-yl)pyrimidin-4-yl)amino)-2-cyclopropyl-3,3-difluoro-7-methyl-1,2,3,4-tetrahydro-[1,4]oxazepino[2,3-c]quinolin-6(7H)-one]: the “HTRF avg pIC50 (1 nM)” value in test [1] came out at 8.93. Also, the “NanoBRET cell avg pIC50” value in test [2] (HEK293T cells co-transfected with BCL6-nanoLuc and NCOR2-HaloTag, 6 hr incubation) is listed as 8.19.
In the case of `C[C@H]1CCOc2c(c3cc(Nc4nc(-n5ccc(C(F)(F)F)n5)ncc4Cl)ccc3n(C)c2=O)N1` [Example 5c, (S)-10-((5-chloro-2-(3-(trifluoromethyl)-1H-pyrazol-1-yl)pyrimidin-4-yl)amino)-2,7-dimethyl-1,2,3,4-tetrahydro-[1,4]oxazepino[2,3-c]quinolin-6(7H)-one], the “HTRF avg pIC50 (1 nM)” value in test [1] amounted to 6.43. In addition, in test [2], the IC50 was 4680 nM.
Regarding `CN1CC2CCC(C1)N2c1ncc(Cl)c(Nc2ccc3c(c2)c2c(c(=O)n3C)OCC[C@H](C3CC3)N2)n1` [Example 12i, (R)-10-((5-chloro-2-(3-methyl-3,8-diazabicyclo[3.2.1]octan-8-yl)pyrimidin-4-yl)amino)-2-cyclopropyl-7-methyl-1,2,3,4-tetrahydro-[1,4]oxazepino[2,3-c]quinolin-6(7H)-one], in test [1], the “HTRF avg pIC50 (1 nM)” value was 7.81. Also, the IC50 in test [2] was 148 nM.
In the same order, the values of `Cn1c(=O)c2c(c3cc(Nc4nc(N5C6COCC5CC(O)C6)ncc4Cl)cnc31)N[C@@H](C1CC1)CCO2` (stereo partly drawn) [Example 11b, (R)-10-((5-chloro-2-((1R,5S,7S)-7-hydroxy-3-oxa-9-azabicyclo[3.3.1]nonan-9-yl)pyrimidin-4-yl)amino)-2-cyclopropyl-7-methyl-1,2,3,4-tetrahydro-[1,4]oxazepino[2,3-c][1,8]naphthyridin-6(7H)-one] are 8.16 and 32.4 nM.
For `Cn1c(=O)c2c(c3cc(Nc4nc(N5CCC(F)(F)CC5)ncc4Cl)ccc31)NC(C1CC1)COC2=O` (centres unmarked) [Example 8o, 10-((5-chloro-2-(4,4-difluoropiperidin-1-yl)pyrimidin-4-yl)amino)-2-cyclopropyl-7-methyl-2,3-dihydro-[1,4]oxazepino[6,5-c]quinoline-5,6(1H,7H)-dione], the “HTRF avg pIC50 (1 nM)” value in test [1] is reported as 6.43. The IC50 in test [2] is 9330 nM.
For the compound `Cn1c(=O)c2c(c3cc(Nc4nc(N5CCC(F)(F)CC5)ncc4Cl)cnc31)N[C@@H](C1CC1)CCO2` [Example 5s, (R)-10-((5-chloro-2-(4,4-difluoropiperidin-1-yl)pyrimidin-4-yl)amino)-2-cyclopropyl-7-methyl-1,2,3,4-tetrahydro-[1,4]oxazepino[2,3-c][1,8]naphthyridin-6(7H)-one], the “HTRF avg pIC50 (1 nM)” value in test [1] came to 7.13. In test [2], the IC50 was 234 nM.
